According to publication PMC9296036, “A peptide interfering with the dimerization of oncogenic KITENIN protein and its stability suppresses colorectal tumour progression” (Clinical and Translational Medicine, 2022):

Assays:
[1] = Detection of KDIP and truncated forms in tumour and liver tissue by LC-MS/MS (MRM) after intravenous injection; assay type: in vivo, mouse; details: tissues collected 20 min after fifth intravenous injection of KDIP 5 mg/kg, below the limit of detection
Method: At 20 min after fifth intravenous injection of KDIP, tumour and liver tissues were collected, immediately frozen using liquid nitrogen and ground with a pestle and mortar. One part of resultant powder by weight was homogenized with two parts of lysis buffer containing 8‐M urea, 25‐mM Tris–HCl (pH 8.5) by volume and was placed in Eppendorf tubes. This lysate was sonicated three times for 2 s with 2‐s intervals of rest at 20% amplitude on ice. Insoluble debris was removed by obtaining supernatant after centrifugation at 14 000 g, 4°C for 15 min.
Peptide extraction from serum or tissue lysate was performed by solid‐phase extraction using Oasis HLB Cartridge 1‐cm^3 (30 mg). HLB cartridges were conditioned using ACN (1 ml) and 50% ACN, .5% FA (1 ml), followed by equilibration using .5% FA (2 ml). A volume of 10‐μl serum and 20 μl of tissue lysate were added by .5% FA to be 1 ml and were loaded on equilibrated cartridges. Cartridges were washed with .5% FA (3 ml), and then peptide was eluted by 50% ACN, .5% FA (500 μl). Eluates were vacuum‐dried using Speed‐Vac and were stored at −80°C until use. Dried samples were reconstituted in .5% FA 50 and 5 μl of sample was loaded on column for LC–MS/MS analysis.
Each sample was analysed using an Agilent 1100 Series high‐performance liquid chromatography pump (Agilent Technologies, USA) coupled to an LTQ linear ion trap mass spectrometer (Thermo Finnigan, USA). Separation of peptide was carried out on a homemade C18‐fused silica column (100‐μm internal diameter) with nano‐electrospray ionization interface. […] Peptide was quantified by multiple reaction monitoring (MRM) in positive ion mode, with a spray voltage of 2.3 kV. […] Furthermore, truncated forms ([…], […]) of KDIP that were detected during stability test were also analysed by following transitions: 468.5 → 404.8 (b16 ^+5), 468.5 → 444.85 (b18 ^+5), 468.5 → 505.7 (b16 ^+4), 468.5 → 551.35 (b18 + H2O^+4), 468.5 → 555.7 (b18 ^+4), 528.45 → 448.85 (b14 ^+4), 528.45 → 499.0 (b16 ^+4), 528.45 → 598.15 (b14 ^+3), 528.45 → 659.25 (b16 + H2O^+3) and 528.45 → 664.95 (b16 ^+3). […]

[2] = biological target: the molecule itself; experiment: SDS-PAGE in the reducing/denaturing condition and Western blot; non-transfected HCT116 and Caco2 cells, regular SDS-PAGE gel, dimer-sized band
[3] = biological target: the molecule itself; experiment: native gel or EMSA; lysates of Caco2 cells transfected with KITENIN-V5, with or without KDIP, on a native SDS-PAGE gel in the non-reducing/non-denaturing condition; immunoblot with anti-KITENIN antibody

Molecule	detection in regressed tumour tissues or liver by mass spectrometry [1]	further results
ARVRRRGPRRWRLVSDEAV [19‐mer, N-truncated form of KDIP found after incubation with mouse serum]	not detected	
VRRRGPRRWRLVSDEAV [17‐mer, N-truncated form of KDIP found after incubation with mouse serum]	not detected	
endogenous KITENIN (natural protein, UniProt Q8TAA9 1-524, looked up, KITENIN (Vangl1), endogenous; also called endogenous KITENIN dimer; source: endogenous, HEK293T, HCT116 or Caco2 lysate) MDTESTYSGYSYYSSHSKKSHRQGERTRERHKSPRNKDGRGSEKSVTIQPPTGEPLLGNDSTRTEEVQDDNWGETTTAITGTSEHSISQEDIARISKDMEDSVGLDCKRYLGLTVASFLGLLVFLTPIAFILLPPILWRDELEPCGTICEGLFISMAFKLLILLIGTWALFFRKRRADMPRVFVFRALLLVLIFLFVVSYWLFYGVRILDSRDRNYQGIVQYAVSLVDALLFIHYLAIVLLELRQLQPMFTLQVVRSTDGESRFYSLGHLSIQRAALVVLENYYKDFTIYNPNLLTASKFRAAKHMAGLKVYNVDGPSNNATGQSRAMIAAAARRRDSSHNELYYEEAEHERRVKKRKARLVVAVEEAFIHIQRLQAEEQQKAPGEVMDPREAAQAIFPSMARALQKYLRITRQQNYHSMESILQHLAFCITNGMTPKAFLERYLSAGPTLQYDKDRWLSTQWRLVSDEAVTNGLRDGIVFVLKCLDFSLVVNVKKIPFIILSEEFIDPKSHKFVLRLQSETSV		stoichiometry N [2]: 2
V5-tagged KITENIN (natural protein, UniProt Q8TAA9 1-524, looked up, KITENIN (Vangl1), wild type; also called KITENIN-V5; WT-KITENIN) MDTESTYSGYSYYSSHSKKSHRQGERTRERHKSPRNKDGRGSEKSVTIQPPTGEPLLGNDSTRTEEVQDDNWGETTTAITGTSEHSISQEDIARISKDMEDSVGLDCKRYLGLTVASFLGLLVFLTPIAFILLPPILWRDELEPCGTICEGLFISMAFKLLILLIGTWALFFRKRRADMPRVFVFRALLLVLIFLFVVSYWLFYGVRILDSRDRNYQGIVQYAVSLVDALLFIHYLAIVLLELRQLQPMFTLQVVRSTDGESRFYSLGHLSIQRAALVVLENYYKDFTIYNPNLLTASKFRAAKHMAGLKVYNVDGPSNNATGQSRAMIAAAARRRDSSHNELYYEEAEHERRVKKRKARLVVAVEEAFIHIQRLQAEEQQKAPGEVMDPREAAQAIFPSMARALQKYLRITRQQNYHSMESILQHLAFCITNGMTPKAFLERYLSAGPTLQYDKDRWLSTQWRLVSDEAVTNGLRDGIVFVLKCLDFSLVVNVKKIPFIILSEEFIDPKSHKFVLRLQSETSV		stoichiometry N [3]: 2
